Test results taken from the NIST ThermoML archive (doi:10.1016/j.jct.2009.09.006).
Numbers after ± are expanded uncertainties.

Assays:
[1] = Crystal; DTA
[2] = Molar enthalpy of transition or fusion; conditions: Crystal; DSC

For CCCCn1cc[n+](C)c1.Cc1ccc(S(=O)(=O)[O-])cc1 [1-butyl-3-methylimidazolium tosylate], the Normal melting temperature [1] was 57.01 ± 0.39 °C and the “Molar enthalpy of transition or fusion” value [2] was 3.91 ± 0.108 kcal/mol.
